In US20140161767A1, “FOLLICLE-STIMULATING HORMONE (FSH)/LYTIC DOMAIN FUSION CONSTRUCTS AND METHODS OF MAKING AND USING SAME” (BOARD OF SUPERVISORS OF LOUISIANA STATE UNIVERSITY AND …, priority 2012, published 2014):

Assays:
[1] = system: Panc-1; experiment: Cell viability after 4 hours (Cell Titer Glo), Panc-1; type: cell-based, human; conditions: 4 h incubation; read-out: Activities [μM] Panc1 (p18)
Description: Human ovarian cancer cell lines OVCAR-3 (p 41), SKOV-3 (p 35) and the human uterine sarcoma cell line MES-SA-Dx5 (p 61) (multi-drug resistant clone), the human pancreatic cancer cell line Panc-1 (passage number 18), and human triple negative breast cancer cell line MDA-MB-231 (passage number 47) were grown in ATCC recommended medium, 10% fetal bovine serum, 100 IU/ml penicillin, 100 microg/ml streptomycin. Cells were typically seeded (2,000 cells per well) into 96 well plates and media was replaced after 48 hours of incubation. […] Each Phor-18-hFSH-β81-89 conjugate provided in lyophilized form was dissolved in saline and added to cells. The duration of incubation was 4 hours at 37° C. Cell viability was assessed after 4 hours using a luminometric assays (Promega, Cell Titer Glo, G755B, lot #00000031421). Controls contained saline or 0.1% triton as reference for 0 and 100% cell death, respectively.
Data were processed and analyzed using GraphPad Prism version 5.00 for Windows, GraphPad Software, San Diego Calif. USA, www.graphpad.com”. Statistical analysis for significance was determined by a two-tailed Student's T-test. Each study was conducted to achieve an N of at least 6.
In vitro activities were expressed as IC50 values for each cell line, time point and compound tested that were calculated using the Hill equation (Graph Pad Prizm software).

[2] = system: MDA-MB-435S.luc xenograft; experiment: Mouse xenograft model of breast cancer, LHRH fusion constructs; type: in vivo, mice
Description: For LHRH fusion constructs, the mouse xenograft model for breast cancer was used. In brief, Nu/Nu female mice, outbred strain, age 5 weeks (Charles River) were injected subcutaneously with a MDA-MB-435S.luc/Matrigel suspension (1×10^6 cells). Treatment was started on day 21 after tumor cell injection and continued on day 26 and 29. The doses for weekly fusion construct injections were 2, 0.2 and 0.02 mg/kg body weight, given as a bolus single injection. All mice were necropsied 34 days after tumor cell injection—baseline values for tumor weights were obtained by sacrificing 8 mice at treatment start. Primary tumors, liver, kidney, pancreas, heart, lung, and spleen were collected and prepared for histological evaluation in formalin. Tumor weights were recorded at necropsy, part of the tumors were frozen at −80° C. for luciferase assay determination.
Characteristics of tumors at necropsy are summarized in FIG. 10: (A) tumor weight, (B) changes of tumor weights compared to baseline, (C) total number of live tumor cells, (D) changes of total live tumor cells compared to baseline, and (E) bodyweights at baseline and necropsy. Viability of tumor cells was determined at the end of the study when tumors were measured for luciferase activity. Treatment efficacy was calculated as difference between measurements at the beginning of treatment compared to the measurement at the end of study (FIGS. 10B and 10D).

[3] = system: MDA-MB-435S xenograft; experiment: MDA-MB-435S xenograft, multiple dose regimen; type: in vivo, mice; conditions: 0.002 and 0.2 mg/kg
Description: In order to determine the minimal effective dose necessary to reduce MDA-MB-435S xenograft weights in a multiple dose regimen, Nu/Nu female mice, outbred strain, age 8 weeks (Charles River), were injected (s.c.) into the interscapular region with a MDA-MB-435S (passage #253)/Matrigel suspension (2×10^6 cells/mouse) as previously described above. […] The doses were given as a single bolus intravenous injection via lateral tail vein on days 15, 16, 17, 20, 21, 22, 23, 27, 28, 29, 30, 33, 34, 35, 36, 37, 38, 40, 41, 42 after tumor cell inoculation. Saline injections served as control groups.
Each treatment group consisted of 16 mice. During the entire study tumor volumes were recorded twice weekly. Final necropsy was conducted on day 45 after tumor cell injection. […] due to occlusion of the tail vein in most mice. At study endpoint body weight, tumor weights were determined and fixed in phosphate buffered 10% formalin.

[4] = system: MDA-MB-435S.luc cells; experiment: Cell toxicity screening (MTT assay) in MDA-MB-435S.luc breast cancer cells; type: cell-based, human
From the text: This example describes screening for cell toxicity (IC50) and hemolytic activity using a human breast cancer cell line.
Eighteen βCG-ala and eight LHRH conjugated fusion constructs were studied and compared to Phor21-βCG-ala and unconjugated Phor21 and Phor 18 (338913)=CLIP71 peptides. The human breast cancer cell line MDA-MB-435S.luc, which over expresses chorionic gonadotrophin (CG) and luteinizing hormone-releasing hormone (LHRH) receptors, was used to screen at passage numbers 248-252. The MDA-MB-435S.luc cell line was constructed from the MDA-MB-435S cell line obtained from the American Type Cell Culture Collection by stable transfection with the plasmid PRC/CMV-luc containing the Photinus pyralis luciferase gene and an […] by lipofection. The stably transfected cell line was selected using G418 and the clones with the highest expression for the luciferase gene were tested for their LH and LHRH receptor expression.
MDA-MB-435S.luc cells were grown in Leibovitz's L 15 medium, 10% fetal bovine serum, 0.01 mg/ml bovine insulin, 100 IU/ml penicillin, 100 microg/ml streptomycin. The cells were cultured in tight closed flasks. […]
Data were processed and analyzed using Graph Pad Prizm 4™ software (Graph Pad Prizm, Inc). Statistical analysis for significance was determined by a two-tailed Student's T-test. […]

[5] = system: OVCAR-3; experiment: IC50 in human cancer cell lines compared to cisplatinum: OVCAR-3; type: cell-based; conditions: ovarian cancer cell line
Description: MDA-MB-435S.luc cells were grown in Leibovitz's L 15 medium, 10% fetal bovine serum, 0.01 mg/ml bovine insulin, 100 IU/ml penicillin, 100 microg/ml streptomycin. The cells were cultured in tight closed flasks. The incubations were conducted using 96 well plates at 10,000 cells per well. Cells were typically seeded into 96 well plates and media was replaced after 48 hours of incubation. Each assay was conducted at increasing concentrations of 0, 0.001, 0.01, 0.05, 0.1, 0.5, 1, 2, 5, 10 and 100 micromolar doses of lytic peptide-binding domain conjugate. Each lytic peptide-binding domain conjugate provided in lyophilized form and was freshly dissolved in saline and added to cells. The duration of incubation was typically 24 h, and cell viability assays were conducted using formazan conversion assays (MTT assay). Controls contained saline or 0.1% triton as reference for 0 and 100% cell death, respectively.
To ascertain the IC50 of various fusion constructs on different human cancer cell lines compared to cisplatinum, IC50 of fusion constructs were evaluated as in Table 3.

| Substance | IC50 [1] [µM] | Concentrations resulting in tumor weights similar to baseline ([2]; mouse, in vivo) [mg/kg] | In vivo tumor efficacy compared to reference Phor21-βCG-ala (tumor weight, viable tumor cells) ([2]; mouse, in vivo) | Tumor volume after 30 days compared to baseline ([2]; p<0.01) | Tumor response [3] | Histological examination of tumors ([3]; H&E) | fold more potent (toxic) than Phor21-βCG-ala [4] [fold] | IC50 [5] [µM] |
| --- | --- | --- | --- | --- | --- | --- | --- | --- |
| KFAKFAK KFAKFAK KFAK [Phor18] | 18.9 ± 0.2 | – | – | – | – | – | – | – |
| KFAKFAKKFAKFAKKFAKQHWSYGLRPG [Phor18-LHRH] | – | 0.2 | Equally effective | smallest tumor volumes | tumor regression | eradication of tumor cells | 2 | 3 ± 0.5 |
